From US12729368B2, “Methods and compositions for generating oligodendrocyte progenitor cells” (Trailhead Biosystems Inc., priority 2022, dated 2026) come the findings set out here.

Values joined by “and” are separate entries in the source; they are usually repeats but may differ in a detail not shown here. Equal entries are not always repeated.

The subject of test [1] is cells cultured in stage 1 and stage 2 differentiation media. The test can be described thus: Two further HD-DoE models optimized for SOX10 (IGF-1, FGF-2, AGN193109). It counts as cell-based, human. The conditions noted are these: two other models optimized for SOX10. An excerpt: According to literature, proteins such as FGF-2, IGF-1, PDGF-AA and NT-3 play an important role in oligodendrocyte differentiation (Goldman and Kuypers (2015) Development 142:3983-95). In the first model, FGF-2 had positive regulatory impact only on the expression level of SOX10 and IGF-1 on PDGFRa. Therefore, to further understand the impact of IGF-1 and FGF-2 on differentiation of cells and confirm their positive role, we included these factors in two other models and optimized the models for maximum expression of SOX10. This gene is one of the main transcription factors of oligodendrocytes, along with OLIG2 and NKX2-2 that has shown the potential to commit the stem cells to oligodendrocytes in reprogramming efforts (Wang et al, (2014) Proc Natl Arad Sri USA 111:E2885-94; García-León et al. (2018) Stem Cell Reports 10:655-672).

In another test the test system is stage 2 early-OPCs. Nature of the test: HD-DoE 12-factor model for stage 3 (version 1) on stage 2 early-OPCs. To be noted: positive. It counts as cell-based, human. On the procedure: In another model, the effects of Activin A and TTNPB along with LDN193189, MHY1485, PDGF-AA, AICAR, FGF2, CHIR99021, DBZ, MK2206, Purmorphamine and T3+T4 were tested on gene profile of differentiating cells. When this model was optimized for maximum expression of SOX10 at 54.7, we observed Activin A again had positive regulatory impact on its expression, with factor contribution of 4.7. Other positive factors included MK2206, with the highest factor contribution at 16.2, MHY1485 at 11.49, CHIR99021 at 9.6, DBZ at 9.3, FGF2 at 3.6 and PDGF-AA, with factor contribution less than 3 (FIG. 20).
In this model, we also investigated the conditions of expression of another important OPC gene, CSPG4 (Goldman and Kuypers (2015) Development 142:3983-95: van Tilborg et al. (2018) Glia 66:221-238).
Dynamic profile analysis was used to better assess the impact of the factors on our selected genes and find the combination set that can optimize their expression (FIG. 22). According to this analysis, even though Activin A has a positive effect on SOX10, it decreases level of PDGFRa and OLIG1. […] Moreover, SOX10 is one of the main transcription factors of oligodendrocytes, along with OLIG2 and NKX2-2, that has shown the potential to commit the stem cells to oligodendrocytes in reprogramming efforts (Wang et al. (2014) Proc Natl Acad Sci USA 111:E2885-94; Garciá-León et al. (2018) Stem Cell Reports 10:655-672). […] One of the main challenges of differentiating cells to oligodendrocyte fate is controlling the mixed population and increasing the purity of the culture by committing more cells to oligodendrocyte over neuronal identity. Therefore, DBZ was excluded from the final recipe.
At this point, we investigated the expression profile of a larger group of genes defining oligodendrocyte progenitor population at a later stage, including ID2, CNP and BCAN (Perlman et al. (2020). Glia 68:1291-1303; Goldman and Kuypers (2015) Development 142:3983-95). In this model, these genes were expressed at 1900, 660 and 44, respectively.

The subject of the next test is OPCs. Nature of the test: HD-DoE 8-factor model for stage 4 on OPCs. In kind it is cell-based, human. The conditions noted are these: optimized for maximal expression of CNP at 1339; positive. On the procedure:
To engineer the recipe of stage 4 of differentiation, 48 or 96 different combinations of effectors generated using Design-of-Experiments compression through D-optimality were robotically prepared. The effector combinations were prepared in a basal media and were subsequently added to the cells, which were treated with the stage 1, stage 2 and stage 3 differentiation media as described in the earlier examples to generate OPCs. […] Solutions within the tested space could then be explored to address desirability.

Test [2] concerns human pluripotent stem cells. The test can be described thus: HD-DoE #2: 13-factor model, differentiation toward anterior neuroectoderm, gene expression. To be noted: dynamic profiling analysis, 13-factor model. It counts as cell-based. An excerpt: To further enhance the conditions for oligodendrocyte differentiation from pluripotency, we performed an additional HD-DoE experiment. We obtained additional gene regulatory models that were used for preparation of a differentiation protocol. The basis of this was a 13-factor HD-DoE experiment with focus on initiation of differentiation of cells toward anterior neuroectoderm. In this model, we focused on expression of FEZF2 and OTX2.
As shown in the results summarized in FIG. 4, the model was optimized for highest expression of OTX2 at 12755.9. According to the model of high expression of OTX2, seven effectors had positive contribution including MK2206, PD0325901, CHIR99021, LDN193189, Go6983, PD173074 and BLU9931 with highest factor contribution of 22.2 for MK2206 and lowest factor contribution of 1.7 for PD173074 and BLU9931.
As shown in the results summarized in FIG. 5, the model was optimized for highest expression of FEZF2 at 4466. When the model was optimized for maximum expression level of FEZF2, three effectors including LDN193189 with factor contribution of 19.5, PD0325901 with factor contribution of 14.6 and MK2206 with factor contribution of 12.3 were common with previous condition and three new effectors including purmorphamine-500 nM, XAV939 and SC79 were introduced.
As shown in the results summarized in FIG. 6, to fine-tune the recipe and find the optimum combination of factors for high expression of both OTX2 and FEZF2, dynamic profiling analysis was done. […] Therefore, these two factors were added to the optimized culture recipe.

In a further test the test system is stage 1 pre-OPCs. Nature of the test: HD-DoE third 12-factor model for stage 2 (Purmorphamine with A 8301, Dexamethasone etc.). In kind it is cell-based, human. To be noted: optimized for OLIG2 at 644.6; positive impact. On the procedure: (§1) To gain more information about the effect of Purmorphamine on differentiation of pre-OPCs to a more committed cell population, we tested this factor in two other models. In a 12-factor model, we included Purmorphamine, FGF2, AGN193109 and CHIR99021 along with 8 new inputs including TTNPB, Biotin, Insulin, propionate, DBZ, Yhhu3792, LDN193189 and Y-27632. […] In another 12-factor model, Purmorphamine was tested along with A 8301, CHIR99021, Dexamethasone, T3+T4, PD0325901, ZM336372, DBZ, BMP7, PD173074, SANT-1 and PDGF-AA.

The next test relates to pre-OPCs. Nature of the test: HD-DoE second 12-factor model for stage 2 (Purmorphamine with TTNPB, Biotin, Insulin etc.). It counts as cell-based, human. The conditions noted are these: optimized for OLIG2 at 3299.4; positive impact. On the procedure:
as §1

For “FGF2: FGF pathway activator, an FGFR agonist”, the “impact on the expression level of SOX10” value in test [1] is given as “positive impact”. In the test with stage 2 early-OPCs (optimized for maximum expression of SOX10 at 54.7), the factor contribution was 3.6.
Consider `c1ccc2c(Oc3nc(Nc4ccc(N5CCOCC5)cc4)c4ncn(C5CCCCC5)c4n3)cccc2c1` [Purmorphamine], for which the factor contribution is 10 in the test on OPCs; 16.9 with stage 1 pre-OPCs; 10.3 in the test with stage 2 early-OPCs (optimized for maximum expression of CSPG4 at 38.6); 13 and 13.03 in the test on pre-OPCs. In test [2], the “effect on expression of FEZF2” value was “significant positive effects”. Moreover, the “impact on expression level of OTX2” value in test [2] was “no negative impact”.
